Results taken from ChEMBL document CHEMBL4342418, “1,2,3-Triazole-containing hybrids as potential anticancer agents: Current developments, action mechanisms and structure-activity relationships” (Eur J Med Chem, 2019).
Blank lines part the entries; values can stand above or below the compound they belong to.

What was measured:
[1] = system: HepG2; experiment: Antiproliferative activity against human HepG2 cells by MTT assay; format: functional, cell-based
[2] = system: KB; experiment: Antiproliferative activity against human KB cells by MTT assay; format: functional, cell-based
[3] = system: T47D; experiment: Antiproliferative activity against human T47D cells by MTT assay; format: functional, cell-based
[4] = system: WiDr; experiment: Antiproliferative activity against human WiDr cells by MTT assay; format: functional, cell-based
[5] = system: A549; experiment: cells; format: functional, cell-based; conditions: Homo sapiens
Description: Antiproliferative activity against human A549 cells by MTT assay

[6] = system: SW1573; experiment: Antiproliferative activity against human SW1573 cells by MTT assay; format: functional, cell-based
[7] = system: HBL-100; experiment: Antiproliferative activity against human HBL100 cells by MTT assay; format: functional, cell-based
[8] = system: HeLa; experiment: Antiproliferative activity against human HeLa cells by MTT assay; format: functional, cell-based
[9] = system: HeLa; experiment: Antiproliferative activity against human HeLa cells assessed as reduction in cell viability after 48 hrs by SRB assay; format: functional
[10] = system: IMR-32; experiment: Antiproliferative activity against human IMR32 cells assessed as reduction in cell viability after 48 hrs by SRB assay; format: functional; conditions: IMR-32, 48 h
[11] = system: HepG2; experiment: Antiproliferative activity against human HepG2 cells assessed as reduction in cell viability after 48 hrs by SRB assay; format: functional; conditions: HepG2, 48 h
[12] = system: MCF7; experiment: Antiproliferative activity against human MCF7 cells assessed as reduction in cell viability after 48 hrs by SRB assay; format: functional, cell-based; conditions: MCF7, 48 h
[13] = system: MDA-MB-231; experiment: Antiproliferative activity against human MDA-MB-231 cells by MTT assay; format: functional, cell-based
[14] = system: MCF-10A; experiment: Cytotoxicity against human MCF10A cells by MTT assay; format: cell-based
[15] = system: MCF7; experiment: cells; format: functional, cell-based; conditions: Homo sapiens
Description: Antiproliferative activity against human MCF7 cells by MTT assay

[16] = system: HT-29; experiment: Antiproliferative activity against human HT-29 cells assessed as reduction in cell viability after 48 hrs by MTT assay; format: functional, cell-based; conditions: HT-29, 48 h
[17] = system: A549; experiment: Antiproliferative activity against human A549 cells assessed as reduction in cell viability after 48 hrs by MTT assay; format: functional, cell-based; conditions: A549, 48 h
[18] = system: DU-145; experiment: Antiproliferative activity against human DU145 cells assessed as reduction in cell viability after 48 hrs by MTT assay; format: functional, cell-based; conditions: DU-145, 48 h
[19] = system: K562; experiment: Antiproliferative activity against human K562 cells assessed as reduction in cell viability after 24 hrs by MTT assay; format: functional, cell-based; conditions: K562, 24 h
[20] = system: P388; experiment: Antiproliferative activity against mouse P388 cells by MTT assay; format: functional, cell-based
[21] = system: Lu1; experiment: Antiproliferative activity against human Lu1 cells by MTT assay; format: functional, cell-based
[22] = system: PC-3; experiment: Antiproliferative activity against human PC3 cells assessed as reduction in cell viability after 24 hrs by MTT assay; format: functional, cell-based; conditions: PC-3, 24 h
[23] = system: HL-60; experiment: Antiproliferative activity against human HL60 cells by MTT assay; format: functional, cell-based
[24] = system: A-431; experiment: Antiproliferative activity against human A431 cells assessed as reduction in cell viability after 24 hrs by MTT assay; format: functional, cell-based; conditions: A-431, 24 h
[25] = system: MDA-MB-231; experiment: Antiproliferative activity against human MDA-MB-231 cells assessed as reduction in cell viability after 24 hrs by MTT assay; format: functional, cell-based; conditions: MDA-MB-231, 24 h
[26] = system: COLO 205; experiment: Antiproliferative activity against human COLO205 cells assessed as reduction in cell viability after 24 hrs by MTT assay; format: functional, cell-based; conditions: COLO 205, 24 h
[27] = system: A549; experiment: Antiproliferative activity against human A549 cells assessed as reduction in cell viability after 24 hrs by MTT assay; format: functional, cell-based; conditions: A549, 24 h

Structure (SMILES): Cc1cn([C@H]2C[C@H](N=[N+]=[N-])[C@@H](CO)O2)c(=O)[nH]c1=O [ZIDOVUDINE]
IC50 [1]: > 400 µM | IC50 [2]: > 400 µM

Structure (SMILES): O=C(NCc1cn(CC(O)Cn2c3c(c4ccccc4c2=O)C(=O)c2ccccc2-3)nn1)c1ccc(Br)cc1 (configuration not stated)
IC50 [1]: 0.76 µM | IC50 [2]: 0.79 µM

Structure (SMILES): COC(=O)c1coc([C@H](Cc2ccccc2)n2cc(CC3CC(CCc4ccccc4)CC(O[Si](C)(C)C(C)(C)C)C3)nn2)n1 (some centres not stated)
IC50 [3]: 3.1 to 88 µM | IC50 [4]: 3.1 to 88 µM | IC50 [5]: 3.1 to 88 µM | IC50 [6]: 3.1 to 88 µM | IC50 [7]: 3.1 to 88 µM | IC50 [8]: 3.1 to 88 µM

Structure (SMILES): C=C(C)[C@@H]1CC[C@]2(COC(=O)/C=C/C(=O)OCc3cn([C@H]4C[C@H](n5ccc(=O)[nH]c5=O)O[C@@H]4CO)nn3)CC[C@]3(C)[C@H](CC[C@@H]4[C@@]5(C)CC[C@H](O)C(C)(C)[C@@H]5CC[C@]43C)C12 (some centres not stated)
IC50 [1]: 1.3 µM | IC50 [2]: 0.3 µM

Structure (SMILES): Cc1c(-n2nnc(-c3nn(-c4nncc5ccccc45)cc3C=O)c2C)cccc1C(F)(F)F
IC50 [13]: 6.8 to 27.6 µM | IC50 [14]: 21.9 to 25.3 µM | IC50 [15]: 6.8 to 27.6 µM

Structure (SMILES): C[C@H]1[C@@H](O)O[C@@H]2O[C@@]3(C)CC[C@H]4[C@H](C)CC[C@@H]1[C@@]24OO3 [ARTENIMOL]
IC50 [19]: 42.4 to 52.6 µM | IC50 [20]: 39.9 to 84.3 µM | IC50 [21]: 39.9 to 84.3 µM | IC50 [1]: 63.7 µM | IC50 [22]: 42.4 to 52.6 µM | IC50 [23]: 39.9 to 84.3 µM | IC50 [2]: 95.3 µM | IC50 [15]: 39.9 to 84.3 µM | IC50 [24]: 42.4 to 52.6 µM | IC50 [25]: 42.4 to 52.6 µM | IC50 [26]: 42.4 to 52.6 µM | IC50 [27]: 42.4 to 52.6 µM

Structure (SMILES): CCCC1CC(Cc2cn(Cc3nc(C(=O)OC)co3)nn2)CC(O[Si](C)(C)C(C)(C)C)C1 (configuration not stated)
IC50 [3]: 3.1 to 88 µM | IC50 [4]: 3.1 to 88 µM | IC50 [5]: 3.1 to 88 µM | IC50 [6]: 3.1 to 88 µM | IC50 [7]: 3.1 to 88 µM | IC50 [8]: 3.1 to 88 µM

Structure (SMILES): CN(C)CCOc1ccc(/C(=C(/CCCl)c2ccccc2)c2ccccc2)cc1 [TOREMIFENE]
IC50 [13]: 13 µM | IC50 [14]: > 100 µM | IC50 [15]: 7 µM

Structure (SMILES): C[C@H]1[C@@H](OCc2cn(-c3ccc([N+](=O)[O-])cc3)nn2)O[C@@H]2O[C@@]3(C)O[C@]24[C@H]1CC[C@@H](C)[C@@H]4C[C@H]3O
IC50 [19]: 4.06 to 89.9 µM | IC50 [22]: 4.06 to 89.9 µM | IC50 [24]: 4.06 to 89.9 µM | IC50 [25]: 4.06 to 89.9 µM | IC50 [26]: 4.06 to 89.9 µM | IC50 [27]: 4.06 to 89.9 µM

Structure (SMILES): CCC(C)[C@@H](c1nc(C(=O)OC)co1)n1cc(CC2CC(O[Si](C)(C)C(C)(C)C)CC(C(C)C)C2)nn1 (some centres not stated)
IC50 [3]: 3.1 to 88 µM | IC50 [4]: 3.1 to 88 µM | IC50 [5]: 3.1 to 88 µM | IC50 [6]: 3.1 to 88 µM | IC50 [7]: 3.1 to 88 µM | IC50 [8]: 3.1 to 88 µM

Structure (SMILES): CC(=O)c1cccc(-n2cc(CO[C@H]3O[C@@H]4O[C@@]5(C)O[C@]46[C@@H](CC[C@@H](C)[C@@H]6C[C@H]5O)[C@H]3C)nn2)c1
IC50 [19]: 4.06 to 89.9 µM | IC50 [22]: 4.06 to 89.9 µM | IC50 [24]: 4.06 to 89.9 µM | IC50 [25]: 4.06 to 89.9 µM | IC50 [26]: 4.06 to 89.9 µM | IC50 [27]: 4.06 to 89.9 µM

Structure (SMILES): C[C@H]1[C@@H](OCc2cn(-c3ccc(C#N)cc3)nn2)O[C@@H]2O[C@@]3(C)O[C@]24[C@H]1CC[C@@H](C)[C@@H]4C[C@H]3O
IC50 [19]: 4.06 to 89.9 µM | IC50 [22]: 4.06 to 89.9 µM | IC50 [24]: 4.06 to 89.9 µM | IC50 [25]: 4.06 to 89.9 µM | IC50 [26]: 4.06 to 89.9 µM | IC50 [27]: 4.06 to 89.9 µM

More lines, main results first:

GI50 [9]: 1.8 to 9.7 µM | GI50 [11]: 1.8 to 9.7 µM | GI50 [12]: 1.8 to 9.7 µM
Structure (SMILES): Cc1ccc(-n2cc(OCc3cn(Cc4ccccc4Br)nn3)cn2)cc1
GI50 [10]: 1.8 to 9.7 µM

GI50 [9]: 1.8 to 9.7 µM | GI50 [11]: 1.8 to 9.7 µM | GI50 [12]: 1.8 to 9.7 µM
Structure (SMILES): Cc1ccc(-c2c(OCc3cn(Cc4ccccc4Cl)nn3)cnn2-c2ccc(F)cc2)cc1
GI50 [10]: 1.8 to 9.7 µM

GI50 [9]: 1.8 to 9.7 µM | GI50 [11]: 1.8 to 9.7 µM | GI50 [12]: 1.8 to 9.7 µM
Structure (SMILES): COc1ccc(Cn2cc(COc3cnn(-c4ccc(C)cc4)c3)nn2)cc1
GI50 [10]: 1.8 to 9.7 µM

GI50 [9]: 1.8 to 9.7 µM | GI50 [11]: 1.8 to 9.7 µM | GI50 [12]: 1.8 to 9.7 µM
Structure (SMILES): Fc1ccc(-n2ncc(OCc3cn(Cc4cccc(Cl)c4)nn3)c2-c2ccc(Cl)cc2)cc1
GI50 [10]: 1.8 to 9.7 µM

IC50 [16]: 0.1 to 1.1 µM | IC50 [17]: 0.1 to 1.1 µM | IC50 [18]: 0.1 to 1.1 µM
Structure (SMILES): O=C(c1cn(Cc2cccc(Oc3ccccc3)c2)nn1)c1cccnc1Nc1ccc(F)cc1

GI50 [9]: 1.8 to 9.7 µM | GI50 [11]: 1.8 to 9.7 µM | GI50 [12]: 1.8 to 9.7 µM
Structure (SMILES): COc1ccc(Cn2cc(COc3cnn(-c4ccc(F)cc4)c3-c3ccc(C)cc3)nn2)cc1
GI50 [10]: 1.8 to 9.7 µM

GI50 [9]: 1.8 to 9.7 µM | GI50 [11]: 1.8 to 9.7 µM | GI50 [12]: 1.8 to 9.7 µM
Structure (SMILES): Cc1ccc(-n2cc(OCc3cn(Cc4ccccc4Cl)nn3)cn2)cc1
GI50 [10]: 1.8 to 9.7 µM
